{
  "source": "patent US20160355782A1",
  "about": "“METHOD FOR ENHANCING DIFFERENTIATION OF DOPAMINERGIC NEURONS” (Buddhist Tzu Chi Medical Foundation, priority 2015, published 2016)",
  "key": {"[1]": {"test_system": "human DA neuroblastoma SH-SY5Y cells", "experiment": "Western blot of TH protein in SH-SY5Y cells", "type": "cell-based", "conditions": "UCN vs control medium", "procedure": "Human DA neuroblastoma SH-SY5Y cells were grown in Minimal Essential Medium (MEM)/F12 medium containing 10% FBS, 2 mM L-glutamine, 100 μM nonessential amino acids, 100 U/mL penicillin, and 100 μg/mL streptomycin. Cells were incubated at 37° C. under saturating humidity in 5% CO2/95% air.\nFor Western blot analysis, VM precursor cells were lysed in M-PER® Mammalian Protein Extraction Reagent (Pierce). Protein concentration was determined by Bradford assay (Bio-Rad, Hercules, Calif.). 30˜50 μg of protein sample was separated on 10˜12% sodium dodecyl sulphate-polyacrylamide gel (SDS-PAGE) and transferred to immobilon polyvinylidene difluoride (PVDF) membranes (Merck Millipore). The membranes were incubated in Tris-buffered saline (TBST, 0.1 M Tris/HCl, pH 7.4, 0.9% NaCl, 0.1% Tween 20) supplemented with 5% non-fat dry milk for 1 h to block nonspecific binding. […] The antigen-antibody complex was detected by using an ECL chemi-luminescence detection system (PerkinElmer, Boston, Mass.). The intensity of the bands was quantified with a GS-800 calibrated densitometer (Bio-Rad), and calculated as the optical density X area of bands."}, "[2]": {"test_system": "Nurr1 complexes in VM precursor cells", "experiment": "Immuno-precipitation with anti-Nurr1 antibody in VM precursor cells", "type": "cell-based, rat", "conditions": "UCN, 24 hours", "procedure": "For immuno-precipitation, VM precursor cells were treated with UCN for 24 hours and then harvested with M-PER® Mammalian Protein Extraction Reagent (Pierce, Rockford, Ill.) containing 1 mM PMSF, 10 μg/mL aprotinin, 10 μg/mL leupeptin, and 5 μg/mL pepstatin A. The cytosolic lysates (250 μg of protein) were incubated with a rabbit anti-Nurr1 antibody (Santa Cruz Biotechnology) with gentle rocking overnight at 4° C. PureProteome™ protein G magnetic beads (Merck Millipore, Billerica, Mass.) were added (15 μL of suspension) and rotated for 3 h at 4° C. After washing the beads with ice-cold immuno-precipitation buffer (20 mM Tris, pH 7.5, 150 mM NaCl, 1 mM EDTA, 1 mM EGTA, 1% Triton X-100, 2.5 mM sodium pyrophosphate, 1 mM β-glycerolphosphate, 1 mM Na3VO4, 1 μg/mL leupeptin, 1 mM PMSF), immuno-precipitated proteins were eluted in sample buffer, and subjected to Western blot analyses with anti-MeCP2, -CoREST, -HDAC1, -Nurr1, -Foxa2, or -Pitx3 antibodies."}, "VM of E16.5 rat embryos": {"test_system": "VM of E16.5 rat embryos", "experiment": "In vivo DA neuron differentiation in VM of rat embryos (immuno-histochemistry)", "procedure": "The pregnant rats on day 12.5 of gestation were intra-peritoneally injected with saline or 10 μg/kg UCN every 24 hours for 3 days (FIGS. 7H & 7I) or 4 days (FIGS. 7A, 7B, & 7E-7G) before sacrifice. FIG. 7A is an image of immuno-staining against TH of rat E16.5 mesencephalon. FIG. 7B is cell counting analysis of TH^+ cells in the VM of E16.5 saline and UCN-treated embryos (**p<0.01 compared with saline group). […] FIGS. 7H and 7I show histone H3 acetylation (H) and Nurr1 recruitments (I) at the TH promoter by ChIP analyses which were performed with chromatin prepared from E15.5 VM tissue of saline or UCN-treated embryos (*p<0.05; **p<0.01 compared with saline groups). Con: control medium.\nFor immuno-histochemistry, rat embryos were perfused with 4% paraformaldehyde, cryopreserved with 30% sucrose in PBS overnight, embedded in Tissue Tek OCT compound (Sakura Finetek, Torrance, Calif.), and then frozen at −80° C. For Nurr1 staining, the embryos were perfused with 4% paraformaldehyde/0.15% picric acid followed by soaking in the same solution overnight at 4° C. Coronal sections (16 μm thick) were blocked with 2% FBS and 3% normal goat or normal donkey serum for 1 h at room temperature, and subsequently incubated with primary antibodies overnight at room temperature. Primary antibodies were rabbit anti-Lmx1b (1:3000), guinea-pig anti-Lmx1b (1:1500), rabbit anti-UCN (1:200), goat anti-CRHR1 (1:100), rabbit anti-CRHR2 (1:250), mouse anti-Nurr1 (1:100), rabbit anti-Nurr1 (1:100), and mouse anti-TH (1:2000). After washing with PBS, secondary antibodies conjugated to the FITC or rhodamine were applied to sections for 1 h. Sections were examined with fluorescent microscope or confocal microscope. Quantitative cell counts were performed in every third section through the entire A9-A10 populations in 5-10 embryos per condition."}},
  "data": [
    {"substance": "Urocortin [UCN]", "values": [
      {"measurement": "TH protein levels", "setting": "[1]", "result": "induced the increases"},
      {"measurement": "amount of Foxa2 that precipitates with Nurr1", "setting": "[2]", "result": "markedly enhanced"},
      {"measurement": "interaction between Pitx3 and Nurr1 proteins", "setting": "[2]", "result": "not significantly altered"},
      {"measurement": "proportion of TH+/Nurr1+ cells in the VM", "setting": "VM of E16.5 rat embryos; UCN treated vs saline-treated embryos, E16.5", "result": "significant proportion of the Nurr1+ cells differentiate into TH+ neurons"},
      {"measurement": "number of ventral mesencephalic TH+ cells", "setting": "VM of E16.5 rat embryos; pregnant rats, 10 μg/kg UCN i.p. every 24 hours for 4 days, E16.5 embryos", "result": "increased number"},
      {"measurement": "Nurr1+ cell numbers in the VM", "setting": "VM of E16.5 rat embryos; saline vs UCN-treated embryos, E16.5", "result": "no significant difference"}
    ]}
  ]
}
